Source: patent publication US20230382915A1, “GCN2 AND PERK KINASE INHIBITORS AND METHODS OF USE THEREOF” (Deciphera Pharmaceuticals, LLC, priority 2021, published 2023)

Assays:
[1] = test system: H358 spheroids; assay: Spheroid Western blot assay, H358; assay type: cell-based
Procedure: NSCLC cell lines H358 (catalog #CRL-5807) and H2030 (catalog #CRL-5914), and fibrosarcoma cell line HT-1080 (catalog […]) were obtained from the American Type Culture Collect (ATTC, Manassas, VA). Cells were grown in RPMI-1640 medium supplemented with 10% heat-inactivated fetal bovine serum and 1% Penicillin/Streptomycin/L-Glutamine (Invitrogen, Carlsbad, CA) at 37° C., 5% CO2, and 95% humidity and maintained at 50-80% confluency until use. Cells were plated at 500,000 cells/well in 24-well Elplasia plates (Corning, Glendale, AZ) with complete growth media at 1 mL/well and incubated overnight at 37° C., 5% CO2, and 95% humidity to form spheroids. The next day, serial dilutions of test compounds were prepared in complete growth media and 500 μL existing media was removed from each well and replaced with fresh media containing compound titers. Spheroids were then incubated with test compounds for 4 hours or 24 hours under the same conditions. […] Western blots were performed to quantify phospho-GCN2 (R&D Systems, Minneapolis, MN), ATF4, CHOP, cleaved PARP, cleaved Caspase 3 and 7, and beta-Actin (Cell Signaling Technology, Danvers, MA). […]

[2] = test system: phospho-GCN2 (Thr899) in HCT116 colorectal cancer cells; assay: HCT116 amino acid starved (-AA) phospho-GCN2 Western blot; assay type: cell-based; details: Homo sapiens, HCT-116, 4 h, read-out: HCT116 -AA pGCN2 Western Blot
Procedure: (§1) HCT116 colorectal cancer cells (catalog #CCL-247) were obtained from the American Type Culture Collect (ATTC, Manassas, VA). Briefly, cells were grown in RPMI 1640 supplemented with 10% heat inactivated fetal bovine serum (Invitrogen, Carlsbad, CA) and 1% Penicillin/Streptomycin/L-Glutamine at 37° C., 5% CO2, and 95% humidity. Cells were expanded until reaching 70-95% confluency at which point they were subcultured or harvested for assay use. Cells were seeded in 12-well culture plate at five hundred thousand cells per well in 1 mL complete growth medium and incubated overnight at 37° C., 5% CO2, and 95% humidity. The next day each well was replaced with 1 mL Earle's Balanced Salt Solution (EBSS, Invitrogen, Carlsbad, CA) supplemented with 10% Dialyzed Fetal Bovine Serum, 5.5 mM Glucose, 1% Penicillin/Streptomycin and 1% Vitamin solution (thermo #11120052). A serial dilution of test compound was dispensed into well. Plates were incubated for 4 h at 37° C., 5% CO2, and 95% humidity. […] Western blot was performed on each lysate to quantify phospho-GCN2 (Thr899), total GCN2, ATF4 and beta-Actin. […] Data were analyzed using GraphPad Prism software (GraphPad, San Diego, CA) to calculate IC50 values.

[3] = test system: ATF4 in HCT116 colorectal cancer cells; assay: HCT116 amino acid starved (-AA) ATF4 Western blot; assay type: cell-based; details: Homo sapiens, HCT-116, 4 h
Procedure: as §1

[4] = test system: HT-1080 fibrosarcoma xenograft; assay: HT-1080 xenograft efficacy model; assay type: in vivo, mice; details: 10 mg/kg BID, 14 days of dosing
Procedure: The HT-1080 xenograft model was performed in compliance with all the laws, regulations and guidelines of the National Institutes of Health (NIH) and with the approval of the Animal Care and Use Committee of Labcorp (Ann Arbor, MI), an AAALAC accredited facility. Food and water were provided ad libitum. […] Female nude mice (6-7 weeks old) were inoculated subcutaneously just below the right high axilla with two million cells in Dulbecco's Phosphate Buffered Saline, using a 27-gauge needle and syringe. When tumor burdens reached 100 mm 3 on average on day 6, mice were randomly assigned into groups such that the mean tumor burden for all groups was within 10% of the overall mean tumor burden for the study population. […] Tumor volume and body weight were measured three time per week. Tumor burden (mg) was estimated from caliper measurements by the formula: tumor burden (mg=mm 3)=(length×width 2)/2.

For `Cn1cc(-c2cccc(NS(=O)(=O)c3cc(Cl)cc(CO)c3Cl)c2F)c2c(N)ncnc21` [Example 2, N-(3-(4-amino-7-methyl-7H-pyrrolo[2,3-d]pyrimidin-5-yl)-2-fluorophenyl)-2,5-dichloro-3-(hydroxymethyl)benzenesulfonamide], the “upregulation of ATF4 (Western blot quantification)” value [1] was no more than 12 fold, the IC50 [2] was no more than 100 nM and the IC50 [3] was no more than 100 nM. The “mean tumor growth inhibition” value [4] was 50%.
